Data taken from patent publication US6500610B1, “Methods for identifying compounds for inhibiting of neoplastic lesions, and pharmaceutical compositions containing such compounds” (Cell Pathways, INC, priority 1997, dated 2002).
Like-named read-outs stand apart in the source and are kept apart here.

What was measured:
[1] = target: T1, cyclooxygenase (Type 1), COX-I (Ovis aries, UniProt P05979); assay: COX inhibition assay, purified cyclooxygenase; details: for COX-I inhibition: FIG. 5
T1 sequence (P05979 25-600): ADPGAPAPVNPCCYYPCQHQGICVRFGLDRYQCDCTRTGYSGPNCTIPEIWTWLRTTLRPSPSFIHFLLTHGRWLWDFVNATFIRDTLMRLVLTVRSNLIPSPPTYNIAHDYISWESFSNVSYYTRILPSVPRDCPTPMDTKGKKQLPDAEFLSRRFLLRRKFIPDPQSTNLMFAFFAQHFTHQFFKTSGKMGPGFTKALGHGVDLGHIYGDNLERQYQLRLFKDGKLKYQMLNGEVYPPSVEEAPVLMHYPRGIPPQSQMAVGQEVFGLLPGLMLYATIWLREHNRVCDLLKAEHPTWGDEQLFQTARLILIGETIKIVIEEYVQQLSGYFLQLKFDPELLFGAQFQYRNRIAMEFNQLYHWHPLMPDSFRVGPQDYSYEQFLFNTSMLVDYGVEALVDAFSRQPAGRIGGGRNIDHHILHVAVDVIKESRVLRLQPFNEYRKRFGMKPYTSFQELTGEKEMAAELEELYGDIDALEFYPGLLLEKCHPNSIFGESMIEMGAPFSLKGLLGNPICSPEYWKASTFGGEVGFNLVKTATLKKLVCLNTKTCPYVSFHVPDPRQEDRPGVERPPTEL

HT-29 cells [2] = assay: Growth inhibition, SRB assay, HT-29; assay type: cell-based, human
[3] = target: T2, cGMP binding sites of the GST-cGB-PDE5 Protein (Homo sapiens, UniProt O76074); assay: cGMP binding assay with GST-cGB-PDE5 fusion protein; details: 3H-cGMP 2 μM
T2 construct: made in house; host or cells: E. coli BL21 (DE3)

[4] = system: cGMP PDE from human colon HT-29 cultured tumor cells; assay: cGMP PDE inhibition assay; assay type: biochemical
[5] = target: T3, Peak A (PDE5) from SW480 cells (Homo sapiens, UniProt O76074); assay: cGMP hydrolysis inhibition, PDE peak A from SW480; assay type: biochemical
T3 construct: To isolate the novel phosphodiesterase from SW480, approximately four hundred million SW480 cells were grown to confluence; endogenous in cells; host or cells: SW480 colon cancer cells; DEAE-Trisacryl M fraction (peak A)

[6] = target: T4, novel cGMP-specific PDE (Peak B) from SW480 cells (Homo sapiens, UniProt O00408); assay: cGMP hydrolysis inhibition, novel PDE peak B (Section IA) from SW480; assay type: biochemical
T4 construct: IC50 Peak B (μM)
T4 sequence (O00408 2-941): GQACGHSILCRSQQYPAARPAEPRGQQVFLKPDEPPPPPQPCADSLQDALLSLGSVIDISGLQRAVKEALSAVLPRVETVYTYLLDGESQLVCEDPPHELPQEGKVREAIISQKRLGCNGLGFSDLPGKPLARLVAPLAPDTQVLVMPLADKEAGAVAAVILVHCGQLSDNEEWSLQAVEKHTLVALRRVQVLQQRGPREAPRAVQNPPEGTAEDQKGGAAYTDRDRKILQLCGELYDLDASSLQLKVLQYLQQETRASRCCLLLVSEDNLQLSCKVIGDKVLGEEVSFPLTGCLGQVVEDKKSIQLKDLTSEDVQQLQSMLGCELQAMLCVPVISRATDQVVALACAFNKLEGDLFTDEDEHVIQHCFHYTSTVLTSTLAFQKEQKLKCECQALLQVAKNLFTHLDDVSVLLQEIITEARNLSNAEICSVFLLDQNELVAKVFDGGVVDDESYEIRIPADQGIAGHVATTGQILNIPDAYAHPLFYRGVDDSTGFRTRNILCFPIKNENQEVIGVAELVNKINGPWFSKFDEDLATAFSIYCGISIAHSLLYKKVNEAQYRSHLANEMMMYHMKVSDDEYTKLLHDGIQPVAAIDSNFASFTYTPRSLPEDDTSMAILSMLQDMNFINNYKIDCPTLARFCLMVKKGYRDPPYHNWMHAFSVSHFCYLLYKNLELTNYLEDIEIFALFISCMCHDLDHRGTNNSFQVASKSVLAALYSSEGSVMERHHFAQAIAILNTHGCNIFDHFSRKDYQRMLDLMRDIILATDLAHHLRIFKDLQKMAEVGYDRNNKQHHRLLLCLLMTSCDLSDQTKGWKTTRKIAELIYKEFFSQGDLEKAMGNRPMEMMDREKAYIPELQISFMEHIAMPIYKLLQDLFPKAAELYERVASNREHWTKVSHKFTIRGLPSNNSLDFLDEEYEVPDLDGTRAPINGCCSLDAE

HT-29 cells [7] = assay: cGMP and cAMP levels in HT-29 cells by radioimmunoassay; assay type: cell-based, human; details: HT-29 cells treated 30 minutes
[8] = system: premalignant lesions in mouse mammary gland organ culture; assay: Mammary gland organ culture model; assay type: cell-based
Source text: Test compounds identified by the above methods can be tested for antineoplastic activity by their ability to inhibit the incidence of pre-neoplastic lesions in a mammary gland organ culture system. This mouse mammary gland organ culture technique has been successfully used by other investigators to study the effects of known antineoplastic agents such as certain NSAIDs, retinoids, tamoxifen, selenium, and certain natural products, and is useful for validation of the screening method of the present invention.
For example, female BALB/c mice can be treated with a combination of estradiol and progesterone daily, in order to prime the glands to be responsive to hormones in vitro. The animals are sacrificed, and thoracic mammary glands are excised aseptically and incubated for ten days in growth media supplemented with insulin, prolactin, hydrocortisone, and aldosterone. DMBA (7,12 dimethylbenz(a)anthracene) is added to medium to induce the formation of premalignant lesions. Fully developed glands are then deprived of prolactin, hydrocortisone, and aldosterone, resulting in the regression of the glands but not the pre-malignant lesions.
The test compound is dissolved in DMSO and added to the culture media for the duration of the culture period. At the end of the culture period, the glands are fixed in 10% formalin, stained with alum carmine, and mounted on glass slides. The incidence of forming mammary lesions is the ratio of the glands with mammary lesions to […]. The incidence of mammary lesions in test compound treated glands is compared with that of the untreated glands.
The extent of the area occupied by the mammary lesions can be quantitated by projecting an image of the gland onto a digitation pad. The area covered by the gland is traced on the pad and considered as 100% of the area. The space covered by each of the non-regressed structures is also outlined on the digitization pad and quantitated by the computer.
Mammary gland organ culture experiment were performed as previously described (Mehta and Moon, Cancer Research, 46:5832-5835, 1986). […]

HT-29 cells [9] = assay: Growth inhibition, viable cell count after trypan blue staining; assay type: cell-based, human; details: HT-29, 120 μM
Procedure: Growth inhibition (15A top) was measured by counting viable cells after trypan blue staining. Apoptosis (15B bottom) was measured by morphological determination following staining with acridine orange and ethidium bromide as described previously (Duke and Cohen, in: Current Protocols in Immunology, 3.17.1-3.17.16, New York, John Wiley and Sons, 1992). […] All data were collected from the same experiment.

HT-29 cells [10] = assay: Apoptosis and necrosis by morphology (acridine orange, ethidium bromide) in HT-29; assay type: cell-based, human
Source text: Apoptosis occurs naturally during normal tissue turnover and during embryonic development of organs and limbs. Apoptosis also is induced by cytotoxic T-lymphocytes and natural killer cells, by ionizing radiation and by certain chemotherapeutic drugs. Inappropriate regulation of apoptosis is thought to play an important role in many pathological conditions including cancer, AIDS, or Alzheimer's disease, etc. Compounds can be screened for induction of apoptosis using cultures of tumor cells maintained under conditions as described above. Treatment of cells with test compounds involves either pre- or post-confluent cultures and treatment for two to seven days at various concentrations. Apoptotic cells are measured in both the attached and “floating” compartments of the cultures. […]
Apoptotic and necrotic cell death was determined previously (Duke and Cohen, In: Current Protocols in Immunology, 3.17.1 -3.17.16, New York, John Wiley and Sons, 1992). […]
The apoptosis inducing activity for a series of phosphodiesterase inhibitors was determined. […] Apoptosis and necrosis were determined morphologically after acridine orange and ethidium bromide labeling in accordance with the assay described, supra.

For `CC(=O)NC(CSC12CC(=O)OC1(C)/C(=C/c1ccc(S(C)(=O)=O)cc1)c1ccc(F)cc12)C(=O)O` (racemic) [D, rac-(E)-1-(butan-1′,4′-olido)-[3′,4′:1,2]-6-fluoro-2-methyl-3-(p-methylsulfonylbenzylidene)-1S-indanyl-N-acetylcysteine], the “COX % Inhibition at 100 μM” value [1] was under 25% and the “Growth % Inhibition at 100 μM” value (HT-29 cells [2]) was 78%.

In the case of `COc1cc(C=C2C(C)=C(CC(=O)O)c3cc(F)ccc32)cc(OC)c1OC` [Compound B, (Z)-5-Fluoro-2-methyl-1-(3,4,5-trimethoxybenzylidene)-3-acetic acid], the COX-I inhibition [1] is reported as “neither test compound B and E significantly inhibit COX-I”, the “competition with cGMP in binding of GST-cGB-PDE5” value (“competition with cGMP in binding” for short) [3] is reported as “None of the PDE5 inhibitors showed any competition with cGMP” and the “cGMP PDE % Inhibition at 10 μM” value [4] is reported as under 25%.

With `CC1=C(CC(=O)O)c2cc(F)ccc2/C1=C\c1ccc(Cl)cc1` [Compound C, (Z)-5-Fluoro-2-methyl-1-(p-chlorobenzylidene)-3-acetic acid] the “Growth % Inhibition at 100 μM” value (HT-29 cells [2]) was 80% and the “cGMP PDE % Inhibition at 10 μM” value [4] was under 25%.

`COc1cc(/C=C2/C(C)=C(CC(=O)NCc3ccccc3)c3cc(F)ccc32)cc(OC)c1OC` [Compound E, (Z)-5-Fluoro-2-methyl-1-(3,4,5-trimethoxybenzylidene)-3-indenylacetamide, N-benzyl] was tested, and the COX-I inhibition [1] was “neither test compound B and E significantly inhibit COX-I”, the “competition with cGMP in binding” value [3] was “None of the PDE5 inhibitors showed any competition with cGMP” and the “competitive (with cGMP) binding to PDE 5 (peak A)” value [5] was “does competitively (with cGMP) bind to PDE 5”. The “competitive (with cGMP) binding to PDE peak B” value [6] was “competitively (with cGMP) binds to PDE peak B” and the “cGMP PDE % Inhibition at 10 μM” value ([4]; 10 µM) was 75%.

For `Clc1cccc(Nc2nnc(-c3ccccc3)c3ccccc23)c1` [MY5445, 1-(3-chloroanilino)-4-phenyphthalazine, reference compound], the “COX % Inhibition at 100 μM” value [1] was 94%.

`COc1ccc(C2CNC(=O)C2)cc1OC1CCCC1` (stereo not shown) [Rolipram] was tested, and the “levels of cAMP” value (HT-29 cells [7]) was “increased cAMP”.

For `CCCc1nn(C)c2c(=O)[nH]c(-c3cc(S(=O)(=O)N4CCN(C)CC4)ccc3OCC)nc12` [Sildenafil, reference compound], the “inhibition of activity of peak A” value [5] was “inhibited activity of peak A”.

With `CSc1ccc(/C=C2/C(C)=C(CC(=O)O)c3cc(F)ccc32)cc1` [Sulindac sulfide] the “competition with cGMP in binding” value [3] was “None of the PDE5 inhibitors showed any competition with cGMP”, the “inhibition of formation of premalignant lesions” value [8] was “inactive” and the “growth inhibition, viable cell count time course” value (HT-29 cells [9]) was “capable of inhibiting tumor cell growth”. For the same molecule, the “cGMP PDE % Inhibition at 10 μM” value [4] was 97%, the “apoptosis, time course” value (HT-29 cells [10]; HT-29, 120 μM) was “accompanied by an increase in apoptosis” and the “apoptotic and necrotic cell death” value (HT-29 cells [10]; HT-29, treated six days) was “capable of causing apoptotic cell death without inducing necrosis”. For the same molecule, the “increase of levels of cGMP” value (HT-29 cells [7]) was “greater than 50%” and the “levels of cAMP” value (HT-29 cells [7]) was “unaffected”.

For `CCCOc1ccccc1-c1nc2nn[nH]c2c(=O)[nH]1` [Zaprinast], the “competition with cGMP in binding” value [3] was “None of the PDE5 inhibitors showed any competition with cGMP”.

`CC1=C(CC(=O)O)c2cc(F)ccc2/C1=C\c1ccc([S+](C)[O-])cc1` (stereo not shown) [sulindac] was tested, and the “inhibition of formation of premalignant lesions” value [8] was “effectively inhibit the formation of premalignant lesions”.
